{"source": "ChEMBL document CHEMBL1147603", "about": "“Fluoropyrrolidine amides as dipeptidyl peptidase IV inhibitors” (Bioorg Med Chem Lett, 2004)", "key": {"[1]": {"assay": "(§1) Half-life period was determined after 1 mg/kg (i.v.) / 2 mg/kg (p.o.) of compound administration", "assay_type": "ADME, organism-based", "conditions": "rat, in vivo"}, "[2]": {"assay": "(§2) Volume of distribution at steady state was determined after 1 mg/kg (i.v.) / 2 mg/kg (p.o.) of compound administration", "assay_type": "ADME, organism-based, Canis lupus familiaris", "conditions": "dog, in vivo, iv, read-out: Vdss"}, "[3]": {"assay": "(§3) Plasma clearance was determined after 1 mg/kg (i.v.) / 2 mg/kg (p.o.) of compound administration", "assay_type": "ADME, organism-based, Canis lupus familiaris", "conditions": "dog, iv, read-out: Clp"}, "[4]": {"assay": "as §1", "assay_type": "ADME, organism-based, Canis lupus familiaris", "conditions": "dog, in vivo"}, "[5]": {"assay": "(§4) Maximum plasma concentration reached by compound was determined after 2 mg/kg (p.o.) administration", "assay_type": "ADME, organism-based, Canis lupus familiaris", "parameters": "dose 2 mg/kg, route oral", "conditions": "dog, po"}, "[6]": {"assay": "as §4", "assay_type": "ADME, organism-based", "parameters": "dose 2 mg/kg, route oral", "conditions": "rat, po"}, "[7]": {"assay": "as §2", "assay_type": "ADME, organism-based", "conditions": "rat, in vivo, iv, read-out: Vdss"}, "[8]": {"assay": "as §3", "assay_type": "ADME, organism-based", "conditions": "rat, iv, read-out: Clp"}}}
{"molecule": "N[C@H](C(=O)N1CC[C@H](F)C1)[C@H]1CC[C@H](NS(=O)(=O)c2ccc(F)cc2F)CC1", "values": [{"measurement": "half-life", "setting": "[1]", "value": 1.6, "unit": "h"}, {"measurement": "Vd", "setting": "[2]", "value": 4.4, "unit": "L/kg"}, {"measurement": "clearance", "setting": "[3]", "value": 0.546, "unit": "L/h/kg"}, {"measurement": "half-life", "setting": "[4]", "value": 5.9, "unit": "h"}, {"measurement": "Cmax", "setting": "[5]", "value": 1, "unit": "µM"}, {"measurement": "Cmax", "setting": "[6]", "value": 0.4, "unit": "µM"}, {"measurement": "Vd", "setting": "[7]", "value": 2.5, "unit": "L/kg"}, {"measurement": "clearance", "setting": "[8]", "value": 1.44, "unit": "L/h/kg"}]}
